This is an account of results in patent publication US20020022746A1, “Method for the crystallization of iopamidol” (priority 1998, published 2002).

The data set in a line: Solubility of Iopamidol plotted against reflux time (FIG. 1). Type of data set: physicochemical. The method, then: With reference to FIG. 1, there is a graph showing the solubility of Iopamidol plotted against reflux time when a ratio of Iopamidol:water:ethanol 4:1:8 (w/v/v) is used in accordance with the method of the present invention. As shown in this graph, the reflux for 4 hours or greater allows the crystallized Iopamidol to have a solubility of 80% or greater. […] Because Iopamidol monohydrates or pentahydrates are of about 50% solubility, the method of the present invention can convert Iopamidol monohydrates or pentahydrates into Iopamidol anhydrides.
FIG. 1 is a graph showing the solubility change of the Iopamidol with reflux time.

In the case of `C[C@H](O)C(=O)Nc1c(I)c(C(=O)NC(CO)CO)c(I)c(C(=O)NC(CO)CO)c1I` [Iopamidol monohydrates, Iopamidol], the solubility entry (hydrated crystalline forms) is reported as “about 50%”. Where the note is “crystallized Iopamidol, Iopamidol:water:ethanol 4:1:8 (w/v/v), reflux for 4 hours or greater”, `C[C@H](O)C(=O)Nc1c(I)c(C(=O)NC(CO)CO)c(I)c(C(=O)NC(CO)CO)c1I` [Iopamidol] came in with a solubility of at least 80%.
